From patent publication US20260207623A1, “USE OF ESTETROL IN HEPATICALLY IMPAIRED PATIENTS” (ESTETRA SRL, priority 2022, published 2026)

Columns and labels:
post-menopausal women = assay: Example 2 dose-finding study: weekly frequency of moderate to severe VMS (absolute and relative change, responders); type: in vivo, human; conditions: for Weekly frequency of moderate to severe VMS, relative change (% from baseline), Mean: 15 mg daily, section B analysis
Source text: Enrolment was approximately 18 months. Individual subject participation was up to 27 weeks: up to 6 weeks pre-screening and washout, up to 4 weeks screening and run-in period, up to 91 days (13 weeks) of E4 monohydrate or placebo treatment followed by 2 weeks (14 days) of progestin therapy and a Follow up visit 1 week after completion of progestin therapy in non-hysterectomied subjects only.
To define the minimum effective dose (MED) of the oral dose of E4 by evaluating changes in frequency and in severity of moderate to severe vasomotor symptoms (VMS).
This was a prospective, multicentre, randomised, placebo-controlled, double-blinded, dose-finding study.
Eligible subjects were hysterectomied and non-hysterectomied post-menopausal women aged 40 to 65 years, inclusive, presenting at least 7 moderate to severe hot flushes/day or at least 50 moderate to severe hot flushes/week.
All treatments (Estetrol, hereinafter E4 as monohydrate, [2.5 mg, 5 mg, 10 mg, 15 mg] capsule) were administered once daily (QD) per os for at least 12 consecutive weeks until the last biological assessments (Day 91 maximum) had been performed.
In order to analyse the data recorded in this study, treatment groups have been compared using an ANCOVA (analysis of covariance) with respect to the change in weekly frequency of moderate to severe VMS from baseline to weeks 4 and 12. The ANCOVA model includes treatment (“trt1”) and study centre (“SITEPOOL”) as a fixed effect and baseline (“base”) as a covariate.
VMS frequency was also studied by grouping patients according to their degree of response.

[1] = test system: triglycerides, glucose, cholesterol, HDL-cholesterol, LDL-cholesterol level; assay: Example 2 section F: lipid parameters and glucose level (triglycerides, glucose, cholesterol, HDL-cholesterol, LDL-cholesterol) at 15 mg and 20 mg daily doses; type: in vivo, human
Method: In order to better assess the potential for increasing the daily dose beyond the minimum effective dose of 15 mg estetrol monohydrate daily, a number of parameters were followed in a study where estetrol monohydrate was administered at the increased dose of 20 mg per day.
1. Triglycerides Level (mmol/L)
2. Glucose Level (mmol/L)
3. Cholesterol Level (mmol/L)
4. HDL-Cholesterol Level (mmol/L)
5. LDL-Cholesterol Level (mmol/L)

C[C@]12CC[C@@H]3c4ccc(O)cc4CC[C@H]3[C@@H]1[C@@H](O)[C@@H](O)[C@@H]2O [E4 monohydrate, estetrol monohydrate]
Weekly frequency of moderate to severe VMS, relative change (% from baseline), Mean (post-menopausal women; week 9): −81% | Weekly frequency of moderate to severe VMS, relative change (% from baseline), Mean (post-menopausal women; week 10): −80% | Weekly frequency of moderate to severe VMS, relative change (% from baseline), Mean (post-menopausal women; week 11): −82% | Weekly frequency of moderate to severe VMS, relative change (% from baseline), Mean (post-menopausal women; week 12): −84% | efficacy on vasomotor parameters (post-menopausal women; two lowest doses tested (2.5 mg per day and 5 mg per day)): did not show efficacy | Cholesterol level, Baseline, Mean ([1]; 15 mg daily): 5.51 mmol/L | Cholesterol level, Baseline, Median ([1]; 15 mg daily): 5.62 mmol/L | Glucose level, Baseline, Mean ([1]; 15 mg daily): 4.77 mmol/L | Glucose level, Baseline, Median ([1]; 15 mg daily): 4.72 mmol/L | HDL-Cholesterol level, Baseline, Mean ([1]; 15 mg daily): 1.73 mmol/L | HDL-Cholesterol level, Baseline, Median ([1]; 15 mg daily): 1.66 mmol/L | LDL-Cholesterol level, Baseline, Mean ([1]; 15 mg daily): 3.05 mmol/L | LDL-Cholesterol level, Baseline, Median ([1]; 15 mg daily): 3.22 mmol/L | Triglycerides level, Baseline, Mean ([1]; 15 mg daily): 1.32 mmol/L | Triglycerides level, Baseline, Median ([1]; 15 mg daily): 1.21 mmol/L | Cholesterol level, End Of Treatment Actual Change from Baseline, Mean ([1]; 15 mg daily, after 12 weeks): 0.12 mmol/L | Cholesterol level, End Of Treatment Actual Change from Baseline, Median ([1]; 15 mg daily, after 12 weeks): 0.08 mmol/L | Cholesterol level, End Of Treatment Actual Value, Mean ([1]; 15 mg daily, after 12 weeks): 5.63 mmol/L | Cholesterol level, End Of Treatment Actual Value, Median ([1]; 15 mg daily, after 12 weeks): 5.71 mmol/L | Glucose level, End Of Treatment Actual Change from Baseline, Mean ([1]; 15 mg daily, after 12 weeks): 0.02 mmol/L | Glucose level, End Of Treatment Actual Change from Baseline, Median ([1]; 15 mg daily, after 12 weeks): 0.05 mmol/L | Glucose level, End Of Treatment Actual Value, Mean ([1]; 15 mg daily, after 12 weeks): 4.79 mmol/L | Glucose level, End Of Treatment Actual Value, Median ([1]; 15 mg daily, after 12 weeks): 4.77 mmol/L | HDL-Cholesterol level, End Of Treatment Actual Change from Baseline, Mean ([1]; 15 mg daily, after 12 weeks): 0.16 mmol/L | HDL-Cholesterol level, End Of Treatment Actual Change from Baseline, Median ([1]; 15 mg daily, after 12 weeks): 0.17 mmol/L | HDL-Cholesterol level, End Of Treatment Actual Value, Mean ([1]; 15 mg daily, after 12 weeks): 1.89 mmol/L | HDL-Cholesterol level, End Of Treatment Actual Value, Median ([1]; 15 mg daily, after 12 weeks): 1.81 mmol/L | LDL-Cholesterol level, End Of Treatment Actual Change from Baseline, Mean ([1]; 15 mg daily, after 12 weeks): 0.09 mmol/L | LDL-Cholesterol level, End Of Treatment Actual Change from Baseline, Median ([1]; 15 mg daily, after 12 weeks): 0.10 mmol/L | LDL-Cholesterol level, End Of Treatment Actual Value, Mean ([1]; 15 mg daily, after 12 weeks): 3.14 mmol/L | LDL-Cholesterol level, End Of Treatment Actual Value, Median ([1]; 15 mg daily, after 12 weeks): 3.25 mmol/L | Triglycerides level, End Of Treatment Actual Change from Baseline, Mean ([1]; 15 mg daily, after 12 weeks): 0.20 mmol/L | Triglycerides level, End Of Treatment Actual Change from Baseline, Median ([1]; 15 mg daily, after 12 weeks): 0.15 mmol/L | Triglycerides level, End Of Treatment Actual Value, Mean ([1]; 15 mg daily, after 12 weeks): 1.61 mmol/L | Triglycerides level, End Of Treatment Actual Value, Median ([1]; 15 mg daily, after 12 weeks): 1.40 mmol/L | Cholesterol level, Baseline, Mean ([1]; 20 mg daily): 6.27 mmol/L | Cholesterol level, Baseline, Median ([1]; 20 mg daily): 6.25 mmol/L | Glucose level, Baseline, Mean ([1]; 20 mg daily): 5.53 mmol/L | Glucose level, Baseline, Median ([1]; 20 mg daily): 5.60 mmol/L | HDL-Cholesterol level, Baseline, Mean ([1]; 20 mg daily): 1.68 mmol/L | HDL-Cholesterol level, Baseline, Median ([1]; 20 mg daily): 1.60 mmol/L | LDL-Cholesterol level, Baseline, Mean ([1]; 20 mg daily): 3.94 mmol/L | LDL-Cholesterol level, Baseline, Median ([1]; 20 mg daily): 4.00 mmol/L | Triglycerides level, Baseline, Mean ([1]; 20 mg daily): 1.43 mmol/L | Triglycerides level, Baseline, Median ([1]; 20 mg daily): 1.40 mmol/L | lipid parameters and glucose level ([1]; 20 mg daily dose in place of 15 mg daily dose): do not behave significantly differently | Cholesterol level, End Of Treatment Actual Change from Baseline, Mean ([1]; 20 mg daily, after 28 days): -0.18 mmol/L | Cholesterol level, End Of Treatment Actual Change from Baseline, Median ([1]; 20 mg daily, after 28 days): -0.20 mmol/L | Cholesterol level, End Of Treatment Actual Value, Mean ([1]; 20 mg daily, after 28 days): 6.09 mmol/L | Cholesterol level, End Of Treatment Actual Value, Median ([1]; 20 mg daily, after 28 days): 6.10 mmol/L | Glucose level, End Of Treatment Actual Change from Baseline, Mean ([1]; 20 mg daily, after 28 days): -0.10 mmol/L | Glucose level, End Of Treatment Actual Change from Baseline, Median ([1]; 20 mg daily, after 28 days): -0.15 mmol/L | Glucose level, End Of Treatment Actual Value, Mean ([1]; 20 mg daily, after 28 days): 5.44 mmol/L | Glucose level, End Of Treatment Actual Value, Median ([1]; 20 mg daily, after 28 days): 5.60 mmol/L | HDL-Cholesterol level, End Of Treatment Actual Change from Baseline, Mean ([1]; 20 mg daily, after 28 days): 0.29 mmol/L | HDL-Cholesterol level, End Of Treatment Actual Change from Baseline, Median ([1]; 20 mg daily, after 28 days): 0.35 mmol/L | HDL-Cholesterol level, End Of Treatment Actual Value, Mean ([1]; 20 mg daily, after 28 days): 1.97 mmol/L | HDL-Cholesterol level, End Of Treatment Actual Value, Median ([1]; 20 mg daily, after 28 days): 1.90 mmol/L | LDL-Cholesterol level, End Of Treatment Actual Change from Baseline, Mean ([1]; 20 mg daily, after 28 days): -0.51 mmol/L | LDL-Cholesterol level, End Of Treatment Actual Change from Baseline, Median ([1]; 20 mg daily, after 28 days): -0.65 mmol/L | LDL-Cholesterol level, End Of Treatment Actual Value, Mean ([1]; 20 mg daily, after 28 days): 3.43 mmol/L | LDL-Cholesterol level, End Of Treatment Actual Value, Median ([1]; 20 mg daily, after 28 days): 3.45 mmol/L | Triglycerides level, End Of Treatment Actual Change from Baseline, Mean ([1]; 20 mg daily, after 28 days): 0.10 mmol/L | Triglycerides level, End Of Treatment Actual Change from Baseline, Median ([1]; 20 mg daily, after 28 days): 0.10 mmol/L | Triglycerides level, End Of Treatment Actual Value, Mean ([1]; 20 mg daily, after 28 days): 1.53 mmol/L | Triglycerides level, End Of Treatment Actual Value, Median ([1]; 20 mg daily, after 28 days): 1.40 mmol/L
